Here are results for three molecules from US6521814B1, “Use of ligands for treatment of diseases responsive to retinoids” (Institut National de la Santa et de la Recherche Medicale, priority 1997, dated 2003).

Series [1] relates to RARα−/− F9 cells. Kind of series: Apoptosis of F9 cells (Hoechst 33258 staining, FACS). The settings on record: 6 d. The arrangement: key: (−): no visible effect. The class given is cell-based, murine. On the procedure: (§1) Apoptosis was analyzed by both Hoechst staining of nuclei and FACS® analysis, as previously described (Clifford, J., et al., EMBO J. 15:4142-4155 (1996)).

In the next series the test system is RXRα−/−/RARγ−/− F9 cells. In words: Proliferation of F9 cells in monolayer culture (cell counting, [3H]thymidine incorporation, cell cycle FACS). The class given is cell-based, murine. The settings on record: 6 d. For orientation: Uptake of a labelled nucleoside into DNA is a usual measure of proliferation.
For series [2], the system named is RXRα−/−/RARα−/− F9 cells. The series is described as above. The settings on record: 6 d. It is filed as cell-based, murine.
In series [3] the test system is RARγ−/− F9 cells. The series is described as above. It is filed as cell-based, murine. The settings on record: 6 d. As for the experimental part: (§2) Cells were plated in triplicate 3-cm culture wells (5×10^2 cells per well), and cell counting experiments were performed as previously described (Clifford, J., et al., EMBO J. 15:4142-4155 (1996)). [^3H]Thymidine incorporation assays were performed essentially as described (Clifford, J., et al., EMBO J. 15:4142-4155 (1996)), with the following modifications. […] The cell cycle profile of WT and mutant cells was determined as previously described (Clifford, J., et al. EMBO J. 15:4142-4155 (1996)).

Series [4] relates to RARα−/− F9 cells. The series is described as above. It is filed as cell-based, murine. The settings on record: 6 d. As for the experimental part:
as §2

Series [5] has as its system WT F9 cells. Described as above. The class given is cell-based, murine. The settings on record: 6 d. As for the experimental part: as §2
For series [6], the system named is RARγ−/− F9 cells. In words: Apoptosis of F9 cells (Hoechst 33258 staining, FACS). The class given is cell-based, murine. The following applies: 100 nM, 6 d. On the procedure: as §1
Series [7] deals with WT F9 cells. The series is described as above. The class given is cell-based, murine. The settings on record: 6 d. As for the experimental part:
as §1

Series [8] deals with RXRα−/−/RARα−/− F9 cells. Kind of series: Morphological differentiation of F9 cell aggregates into visceral endoderm (VE)-like cells (morphology, RT-PCR of markers). The class given is cell-based, murine. The settings on record: RXRα−/−/RARα−/−, 10 d. From the text: (§3) Transcript levels were quantified using a BAS 2000 bioimaging analyzer (Fuji Ltd., Tokyo, Japan), and were normalized to the corresponding 36B4 signals.

Series [9] has as its system RXRα−/− F9 cells. The series is described as above. The following applies: 10 d. It is filed as cell-based, murine.
From the text: as §3

Series [10] concerns RXRα−/− F9 cells. Kind of series: Apoptosis of F9 cells (Hoechst 33258 staining, FACS). The following applies: 100 nM, 6 d. It is filed as cell-based, murine.
Series [11] relates to RARγ−/− F9 cells. In words: Morphological differentiation of F9 cell aggregates into visceral endoderm (VE)-like cells (morphology, RT-PCR of markers). It is filed as cell-based, murine. The settings on record: RARγ−/−, 10 d. The arrangement: key to proportion of outer layer of cells displaying VE morphology: +++: more than 80%; ++: 50-80%; +: 10-50%; ±: not more than 10%; (−): no visible effect. As for the experimental part: (§4) F9 cells were cultured and induced to differentiate into primitive, parietal and visceral endoderm-like cells as previously described (Boylan, J., et al., Proc. Natl. Acad. Sci. USA 90:9601-9605 (1993); Clifford, J., et al., EMBO J. 15:4142-4155 (1996)).
(§5) RNA preparation, RT-PCR, and Southern blotting were performed as previously described (Bouillet, P., et al., Dev. Biol. 170:420-433 (1995); Roy, B., et al., Mol. Cell. Biol. 15:6481-6487 (1995)). The PCR primers and end-labeled oligonucleotide probes for collagen IVα1, laminin B1, α-fetoprotein (AFP), and 36B4, were described previously (Clifford, J., et al ., EMBO J. 15:4142-4155 (1996)). Transcript levels were quantified using a BAS 2000 bioimaging analyzer (Fuji Ltd., Tokyo, Japan), and were normalized to the corresponding 36B4 signals.

The test system of series [12] is RXRα−/− F9 cells. In words: Proliferation of F9 cells in monolayer culture (cell counting, [3H]thymidine incorporation, cell cycle FACS). It is filed as cell-based, murine. The settings on record: 6 d.
For series [13], the system named is RARα−/− F9 cells. In words: Morphological differentiation of F9 cell aggregates into visceral endoderm (VE)-like cells (morphology, RT-PCR of markers). It is filed as cell-based, murine. Further details: key to proportion of outer layer of cells displaying VE morphology: +++: more than 80%; ++: 50-80%; +: 10-50%; ±: not more than 10%; (−): no visible effect. The settings on record: 10 d.
From the text: (§6) Similarly, after 10 d of treatment, >80% of the outer layer of RARα^−/− and RXRα^−/−/RARα^−/− cell aggregates differentiated into VE-like cells, which were indistinguishable from those of WT and RXRα^−/− cells (FIG. 23A, compare f with panels b and d; and Table 9). […] To exclude the possibility that this very poor differentiation of the RXRα^−/−/RARγ^−/− cells could be due to some clonal variation, rather than the presence of the RXRα-null mutation in the RARγ-null background, we expressed the RXRα cDNA in RXRα^−/−/RARγ^−/− cells.
as §4, §5

Series [14] deals with WT F9 cells. The series is described as above. The class given is cell-based, murine. Further details: key to proportion of outer layer of cells displaying VE morphology: +++: more than 80%; ++: 50-80%; +: 10-50%; ±: not more than 10%; (−): no visible effect. The settings on record: WT, 10 d.
From the text: as §6, §4, §5

Series [15] concerns RXRα−/−/RARα−/− F9 cells. In words: Apoptosis of F9 cells (Hoechst 33258 staining, FACS). The settings on record: 100 nM, 6 d. It is filed as cell-based, murine.
The next series deals with D2R promoter. In words: D2R promoter CAT reporter assay in transfected COS-1 cells, reporter alone. It is filed as cell-based, rat. The settings on record: C1 reporter-transfected COS-1 cells, no receptor vector; 10^−7 M. From the text: Expression Vectors. The C1 reporter construct was obtained by subcloning the HindIII fragment spanning the 5 ′ promoter region of the D2R gene (positions −495 to +273), in the reporter plasmid pBLCAT3 (Luckow, B. & Schütz, G., Nucleic Acids Res. 15:5490 (1987)). The C2 reporter plasmid was constructed by subcloning the SmaI-XhoI fragment (positions −76 to +273) in the same position. The C3 and C4 reporters were generated by cloning a 29 bp synthetic oligonucleotide corresponding, respectively, to the natural rat D2R RARE sequence and the mutated one into pBLCAT2 (Luckow, B. & Schütz, G., Nucleic Acids Res. 15:5490 (1987)). The polylinker in pBLCAT2 is located upstream of the herpes simplex virus 1 (HSV1) thymidine kinase (TK) promoter, from position −105 to +51. To measure transfection efficiency the plasmid pCH110 carrying the β-galactosidase gene (Pharmacia) was used. Mouse […], as well as mouse RXRα, β and γ expression vectors were derived from the parental pSG5 vector (Green, S., et al., Nucleic Acids Res. 16:369 (1988)).
COS-1 cells were used for transient transfection assays. Cells were grown in Dulbecco's modified Eagle's medium supplemented with 5% fetal calf serum.
Several hours before transfection, the medium was replaced with fresh medium containing 5% charcoal-treated FCS. […]

A further series addresses T1, RARα/RXRγ (Mus musculus, UniProt P11416;P28705 P11416:1-462,P28705:1-463).
T1 sequence 1: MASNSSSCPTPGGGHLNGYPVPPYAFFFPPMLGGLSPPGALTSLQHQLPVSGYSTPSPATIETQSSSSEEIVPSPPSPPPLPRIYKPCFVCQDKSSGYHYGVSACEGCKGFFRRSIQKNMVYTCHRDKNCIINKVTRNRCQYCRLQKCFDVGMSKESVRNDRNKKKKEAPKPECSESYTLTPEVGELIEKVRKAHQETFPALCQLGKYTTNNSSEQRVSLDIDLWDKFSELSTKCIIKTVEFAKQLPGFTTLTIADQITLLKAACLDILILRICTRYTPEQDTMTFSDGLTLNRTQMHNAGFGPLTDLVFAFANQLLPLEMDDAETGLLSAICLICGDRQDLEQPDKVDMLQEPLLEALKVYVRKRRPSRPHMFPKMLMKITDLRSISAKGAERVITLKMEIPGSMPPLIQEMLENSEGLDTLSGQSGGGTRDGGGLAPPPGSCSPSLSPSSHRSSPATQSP
T1 sequence 2: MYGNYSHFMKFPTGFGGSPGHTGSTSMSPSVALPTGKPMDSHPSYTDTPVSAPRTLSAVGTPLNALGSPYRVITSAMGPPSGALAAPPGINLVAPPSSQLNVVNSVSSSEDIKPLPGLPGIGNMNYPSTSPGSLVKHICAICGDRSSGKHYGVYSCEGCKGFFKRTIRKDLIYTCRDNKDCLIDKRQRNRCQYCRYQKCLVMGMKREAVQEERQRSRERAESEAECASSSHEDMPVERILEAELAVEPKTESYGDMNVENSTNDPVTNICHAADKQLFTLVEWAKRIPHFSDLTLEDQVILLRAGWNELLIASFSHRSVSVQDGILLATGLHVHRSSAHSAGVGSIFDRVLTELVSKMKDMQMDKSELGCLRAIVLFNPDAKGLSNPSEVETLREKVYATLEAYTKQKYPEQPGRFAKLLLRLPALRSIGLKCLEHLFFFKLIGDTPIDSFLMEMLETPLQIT
Kind of series: cell_activity; C3 TK-CAT reporter with one RARE D2 copy, t-RA and 9-cis-RA. The following applies: tags: pSG5 expression vectors, COS-1 cells; label: 32P.

Procedure for RARα/RXRγ: Bars represent the mean of several independent experiments and standard deviations are indicated.
Several hours before transfection, the medium was replaced with fresh medium containing 5% charcoal-treated FCS. Cells (10^6 per 10 cm plate) were transfected by the calcium phosphate method using 2 μg of the reporter plasmid, 0.1 μg of retinoid acid receptor expression vectors and 0.5 μg of pCH110. In all transfection assays, the Bluescript (SK^-) plasmid was used as a carrier to reach 20 μg of total transfected DNA per plate.

With `CC1(C)CCC(C)(C)c2cc([C@@H](O)C(=O)Nc3ccc(C(=O)O)cc3F)ccc21` [RARγ agonist], the “proportion of apoptotic nuclei and subcellular fragments (Hoechst 33258)” value is “(−)” in the series with RARα−/− F9 cells [1] (10 nM); “+ (>1-10%)” in the series with RARα−/− F9 cells [1] (100 nM); “(−)” in the series with RARγ−/− F9 cells [6]; “(−)” in the series on WT F9 cells [7] (10 nM); “+ (>1-10%)” in the series with WT F9 cells [7] (100 nM); “±* (asterisks less than that in combination with 1 μM panRXR agonist)” in the series with RXRα−/− F9 cells [10]. In addition, in the series with RXRα−/−/RARα−/− F9 cells [15], the “proportion of apoptotic nuclei and subcellular fragments (Hoechst 33258)” value was “±* (asterisks less than that in combination with 1 μM panRXR agonist)”. The “number of cells in percent relative to cells grown in 0.1% ethanol” value with RXRα−/−/RARγ−/− F9 cells (10 nM) turned out to be 100%; in the series on RXRα−/−/RARγ−/− F9 cells (100 nM), 100%; in the series on RXRα−/−/RARα−/− F9 cells [2] (10 nM), 100%; in the series with RXRα−/−/RARα−/− F9 cells [2] (100 nM) it was 49%; with RARγ−/− F9 cells [3] (10 nM), 100%; in the series on RARγ−/− F9 cells [3] (100 nM), 100%. The “number of cells in percent relative to cells grown in 0.1% ethanol” value is listed as 100% with RARα−/− F9 cells [4] (10 nM); 30% in the series on RARα−/− F9 cells [4] (100 nM); 100% in the series with WT F9 cells [5] (10 nM); 37% in the series on WT F9 cells [5] (100 nM); 100% with RXRα−/− F9 cells [12] (10 nM); 51% in the series on RXRα−/− F9 cells [12] (100 nM). The “proportion of outer layer of cells displaying VE morphology” value in the series with RXRα−/−/RARα−/− F9 cells [8] (10 nM) is “+ (10-50%)”; in the series on RXRα−/−/RARα−/− F9 cells [8] (100 nM) it was “+++ (more than 80%)”; in the series on RXRα−/− F9 cells [9] (10 nM), “+ (10-50%)”; in the series with RXRα−/− F9 cells [9] (100 nM), “+++ (more than 80%)”; in the series with RARγ−/− F9 cells [11] (1 nM), “(−)”; with RARγ−/− F9 cells [11] (10 nM) it was “(−)”. For the same molecule, the “proportion of outer layer of cells displaying VE morphology” value is recorded as “(−)” in the series on RARγ−/− F9 cells [11] (100 nM); “(−)” in the series with RARα−/− F9 cells [13] (1 nM); “+++ (more than 80%)” in the series with RARα−/− F9 cells [13] (10 nM); “+++ (more than 80%)” in the series with RARα−/− F9 cells [13] (100 nM); “(−)” in the series on WT F9 cells [14] (1 nM); “± (not more than 10%)” in the series with WT F9 cells [14] (10 nM). Moreover, the “proportion of outer layer of cells displaying VE morphology” value with WT F9 cells [14] (100 nM) is on record as “+++ (more than 80%)”.
Consider `CC1=C(/C=C/C(C)=C\C=C\C(C)=C\C(=O)O)C(C)(C)CCC1` [9-cis-RA, 9-cis RA], for which, in the series with D2R promoter, the “changes in CAT activity” value is listed as “no significant changes”.

B1: RARE D2 (dsDNA)
DNA 1: AGCTTCCTCGTGGCCAGGGTGACCCCGCG
DNA 2: CGCGGGGTCACCCTGGCCACGAGGAAGCT
Consider B1, for which, in the series with RARα/RXRγ, the activity was found to be 11 fold.
